Measurements as given in paper PMC7497403, “Development of Potent PfCLK3 Inhibitors Based on TCMDC-135051 as a New Class of Antimalarials” (Journal of Medicinal Chemistry, 2020).

Legend:
Test in all cases: Kinase screen
Assay type in all cases: biochemical
[1] = biological target: Aurora B (Homo sapiens, UniProt Q96GD4)
Source text: (§1) With verapamil used as a positive control.
(§2) V. Distribution coefficient (LogD7.4)

[2] = biological target: BRSK2 (Homo sapiens, UniProt Q8IWQ3)
Source text: as §1, §2

[3] = biological target: BTK (Homo sapiens, UniProt Q06187)
Source text: as §1, §2

[4] = biological target: CDK2-Cyclin A (Homo sapiens, UniProt P24941)
Source text: as §1, §2

[5] = biological target: CDK9-Cyclin T1 (Homo sapiens, UniProt P50750)
Source text: as §1, §2

[6] = biological target: CK1γ2 (Homo sapiens, UniProt P78368)
Source text: as §1, §2

[7] = biological target: CSK (Homo sapiens, UniProt P41240)
Source text: as §1, §2

[8] = biological target: DAPK1 (Homo sapiens, UniProt P53355)
Source text: as §1, §2

[9] = biological target: EPH-A4 (Homo sapiens, UniProt P54764)
Source text: as §1, §2

[10] = biological target: ERK2 (Homo sapiens, UniProt P28482)
Source text: as §1, §2

[11] = biological target: ERK8 (Homo sapiens, UniProt Q8TD08)
Source text: as §1, §2

[12] = biological target: FGF-R1 (Homo sapiens, UniProt P11362)
Source text: as §1, §2

[13] = biological target: GCK (Homo sapiens, UniProt Q12851)
Source text: as §1, §2

[14] = biological target: HIPK2 (Homo sapiens, UniProt Q9H2X6)
Source text: as §1, §2

[15] = biological target: HIPK3 (Homo sapiens, UniProt Q9H422)
Source text: as §1, §2

[16] = biological target: IRAK4 (Homo sapiens, UniProt Q9NWZ3)
Source text: as §1, §2

[17] = biological target: JAK3 (Homo sapiens, UniProt P52333)
Source text: as §1, §2

[18] = biological target: JNK3 (Homo sapiens, UniProt P53779)
Source text: as §1, §2

[19] = biological target: MARK2 (Homo sapiens, UniProt Q7KZI7)
Source text: as §1, §2

[20] = biological target: MEKK1 (Homo sapiens, UniProt Q13233)
Source text: as §1, §2

[21] = biological target: MKK1 (Homo sapiens, UniProt Q02750)
Source text: as §1, §2

[22] = biological target: MKK2 (Homo sapiens, UniProt P36507)
Source text: as §1, §2

[23] = biological target: MLK1 (Homo sapiens, UniProt P80192)
Source text: as §1, §2

[24] = biological target: MNK2 (Homo sapiens, UniProt Q9HBH9)
Source text: as §1, §2

[25] = biological target: MPSK1 (Homo sapiens, UniProt O75716)
Source text: as §1, §2

[26] = biological target: MSK1 (Homo sapiens, UniProt O75582)
Source text: as §1, §2

[27] = biological target: MST2 (Homo sapiens, UniProt Q13188)
Source text: as §1, §2

[28] = biological target: NUAK1 (Homo sapiens, UniProt O60285)
Source text: as §1, §2

[29] = biological target: PAK6 (Homo sapiens, UniProt Q9NQU5)
Source text: as §1, §2

[30] = biological target: PDGFRA (Homo sapiens, UniProt P16234)
Source text: as §1, §2

[31] = biological target: PDK1 (Homo sapiens, UniProt O15530)
Source text: as §1, §2

[32] = biological target: PIM3 (Homo sapiens, UniProt Q86V86)
Source text: as §1, §2

[33] = biological target: PKBb (Homo sapiens, UniProt P31751)
Source text: as §1, §2

[34] = biological target: PKCγ (Homo sapiens, UniProt P05129)
Source text: as §1, §2

[35] = biological target: PLK1 (Homo sapiens, UniProt P53350)
Source text: as §1, §2

[36] = biological target: RIPK2 (Homo sapiens, UniProt O43353)
Source text: as §1, §2

[37] = biological target: RSK1 (Homo sapiens, UniProt Q15418)
Source text: as §1, §2

[38] = biological target: S6K1 (Homo sapiens, UniProt P23443)
Source text: as §1, §2

[39] = biological target: SGK1 (Homo sapiens, UniProt O00141)
Source text: as §1, §2

[40] = biological target: SIK3 (Homo sapiens, UniProt Q9Y2K2)
Source text: as §1, §2

[41] = biological target: Src (Homo sapiens, UniProt P12931)
Source text: as §1, §2

[42] = biological target: TAK1 (Homo sapiens, UniProt O43318)
Source text: as §1, §2

[43] = biological target: TAO1 (Homo sapiens, UniProt Q7L7X3)
Source text: as §1, §2

[44] = biological target: TBK1 (Homo sapiens, UniProt Q9UHD2)
Source text: as §1, §2

[45] = biological target: TSSK1 (Homo sapiens, UniProt Q9BXA7)
Source text: as §1, §2

[46] = biological target: TrkA (Homo sapiens, UniProt P04629)
Source text: as §1, §2

Chain of IRAK4 (Q9NWZ3 whole entry): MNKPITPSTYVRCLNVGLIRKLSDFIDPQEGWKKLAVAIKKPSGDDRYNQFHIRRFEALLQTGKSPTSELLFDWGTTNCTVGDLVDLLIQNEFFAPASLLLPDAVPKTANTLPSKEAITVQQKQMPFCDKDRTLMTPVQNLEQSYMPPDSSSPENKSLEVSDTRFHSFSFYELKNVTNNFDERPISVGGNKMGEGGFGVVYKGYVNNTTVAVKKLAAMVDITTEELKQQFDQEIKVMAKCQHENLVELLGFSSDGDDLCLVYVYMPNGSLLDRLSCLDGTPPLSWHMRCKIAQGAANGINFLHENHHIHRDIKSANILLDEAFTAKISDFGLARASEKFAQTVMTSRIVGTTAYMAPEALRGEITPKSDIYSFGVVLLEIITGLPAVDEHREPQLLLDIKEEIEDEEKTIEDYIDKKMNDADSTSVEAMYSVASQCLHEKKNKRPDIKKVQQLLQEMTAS
Chain of MLK1 (P80192 whole entry): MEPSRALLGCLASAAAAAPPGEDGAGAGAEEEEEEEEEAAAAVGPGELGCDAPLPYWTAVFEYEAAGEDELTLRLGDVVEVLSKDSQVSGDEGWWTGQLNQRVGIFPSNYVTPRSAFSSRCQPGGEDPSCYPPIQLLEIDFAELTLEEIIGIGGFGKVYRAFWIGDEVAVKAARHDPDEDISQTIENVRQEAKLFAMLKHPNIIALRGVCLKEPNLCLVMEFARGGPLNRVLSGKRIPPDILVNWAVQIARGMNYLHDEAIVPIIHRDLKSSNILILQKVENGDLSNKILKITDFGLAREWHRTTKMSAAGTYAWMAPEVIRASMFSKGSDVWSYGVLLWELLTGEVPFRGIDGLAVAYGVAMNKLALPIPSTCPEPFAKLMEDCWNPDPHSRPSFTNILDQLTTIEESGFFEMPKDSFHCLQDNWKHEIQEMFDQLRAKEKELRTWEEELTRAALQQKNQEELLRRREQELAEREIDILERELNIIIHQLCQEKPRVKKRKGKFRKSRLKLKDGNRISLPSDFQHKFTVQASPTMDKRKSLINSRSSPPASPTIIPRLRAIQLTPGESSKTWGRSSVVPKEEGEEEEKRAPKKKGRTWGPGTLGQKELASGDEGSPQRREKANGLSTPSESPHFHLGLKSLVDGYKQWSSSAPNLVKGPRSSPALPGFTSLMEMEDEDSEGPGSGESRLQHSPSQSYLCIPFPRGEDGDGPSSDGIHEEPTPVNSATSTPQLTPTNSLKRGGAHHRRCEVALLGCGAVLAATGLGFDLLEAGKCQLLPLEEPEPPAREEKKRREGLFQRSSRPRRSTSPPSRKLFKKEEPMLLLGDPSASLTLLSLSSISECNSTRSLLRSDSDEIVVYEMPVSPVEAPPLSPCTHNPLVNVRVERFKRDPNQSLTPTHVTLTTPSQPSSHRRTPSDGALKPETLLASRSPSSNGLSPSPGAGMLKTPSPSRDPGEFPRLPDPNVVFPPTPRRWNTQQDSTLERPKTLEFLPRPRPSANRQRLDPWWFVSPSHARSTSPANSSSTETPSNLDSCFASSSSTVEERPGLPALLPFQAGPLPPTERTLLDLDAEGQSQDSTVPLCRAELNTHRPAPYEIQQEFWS
Chain of TAO1 (Q7L7X3 whole entry): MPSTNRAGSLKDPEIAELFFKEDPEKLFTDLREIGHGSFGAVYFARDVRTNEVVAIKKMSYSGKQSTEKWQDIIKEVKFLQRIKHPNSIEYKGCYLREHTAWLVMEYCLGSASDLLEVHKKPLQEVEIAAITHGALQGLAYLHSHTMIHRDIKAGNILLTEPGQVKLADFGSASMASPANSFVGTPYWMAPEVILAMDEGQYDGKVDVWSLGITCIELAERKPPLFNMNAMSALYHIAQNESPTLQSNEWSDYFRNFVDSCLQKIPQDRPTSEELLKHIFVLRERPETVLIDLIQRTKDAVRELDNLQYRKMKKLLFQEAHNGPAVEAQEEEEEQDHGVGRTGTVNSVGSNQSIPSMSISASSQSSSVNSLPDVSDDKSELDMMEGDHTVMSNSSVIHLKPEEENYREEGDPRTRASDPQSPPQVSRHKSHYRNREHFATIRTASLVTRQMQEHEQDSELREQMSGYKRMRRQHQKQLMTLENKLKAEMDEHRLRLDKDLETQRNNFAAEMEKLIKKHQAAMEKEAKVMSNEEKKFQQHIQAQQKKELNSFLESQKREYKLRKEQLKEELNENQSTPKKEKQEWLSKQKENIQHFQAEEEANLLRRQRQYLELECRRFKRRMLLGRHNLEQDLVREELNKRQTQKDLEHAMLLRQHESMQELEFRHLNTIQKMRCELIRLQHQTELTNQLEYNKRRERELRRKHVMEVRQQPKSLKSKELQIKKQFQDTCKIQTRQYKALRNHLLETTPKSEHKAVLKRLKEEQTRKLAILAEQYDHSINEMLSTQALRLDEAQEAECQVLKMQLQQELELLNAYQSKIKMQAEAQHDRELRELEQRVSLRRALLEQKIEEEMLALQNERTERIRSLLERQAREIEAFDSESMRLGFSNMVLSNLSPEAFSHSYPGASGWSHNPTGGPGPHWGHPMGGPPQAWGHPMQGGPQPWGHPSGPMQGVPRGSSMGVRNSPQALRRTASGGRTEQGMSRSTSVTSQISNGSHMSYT
Chain of SIK3 (Q9Y2K2 whole entry): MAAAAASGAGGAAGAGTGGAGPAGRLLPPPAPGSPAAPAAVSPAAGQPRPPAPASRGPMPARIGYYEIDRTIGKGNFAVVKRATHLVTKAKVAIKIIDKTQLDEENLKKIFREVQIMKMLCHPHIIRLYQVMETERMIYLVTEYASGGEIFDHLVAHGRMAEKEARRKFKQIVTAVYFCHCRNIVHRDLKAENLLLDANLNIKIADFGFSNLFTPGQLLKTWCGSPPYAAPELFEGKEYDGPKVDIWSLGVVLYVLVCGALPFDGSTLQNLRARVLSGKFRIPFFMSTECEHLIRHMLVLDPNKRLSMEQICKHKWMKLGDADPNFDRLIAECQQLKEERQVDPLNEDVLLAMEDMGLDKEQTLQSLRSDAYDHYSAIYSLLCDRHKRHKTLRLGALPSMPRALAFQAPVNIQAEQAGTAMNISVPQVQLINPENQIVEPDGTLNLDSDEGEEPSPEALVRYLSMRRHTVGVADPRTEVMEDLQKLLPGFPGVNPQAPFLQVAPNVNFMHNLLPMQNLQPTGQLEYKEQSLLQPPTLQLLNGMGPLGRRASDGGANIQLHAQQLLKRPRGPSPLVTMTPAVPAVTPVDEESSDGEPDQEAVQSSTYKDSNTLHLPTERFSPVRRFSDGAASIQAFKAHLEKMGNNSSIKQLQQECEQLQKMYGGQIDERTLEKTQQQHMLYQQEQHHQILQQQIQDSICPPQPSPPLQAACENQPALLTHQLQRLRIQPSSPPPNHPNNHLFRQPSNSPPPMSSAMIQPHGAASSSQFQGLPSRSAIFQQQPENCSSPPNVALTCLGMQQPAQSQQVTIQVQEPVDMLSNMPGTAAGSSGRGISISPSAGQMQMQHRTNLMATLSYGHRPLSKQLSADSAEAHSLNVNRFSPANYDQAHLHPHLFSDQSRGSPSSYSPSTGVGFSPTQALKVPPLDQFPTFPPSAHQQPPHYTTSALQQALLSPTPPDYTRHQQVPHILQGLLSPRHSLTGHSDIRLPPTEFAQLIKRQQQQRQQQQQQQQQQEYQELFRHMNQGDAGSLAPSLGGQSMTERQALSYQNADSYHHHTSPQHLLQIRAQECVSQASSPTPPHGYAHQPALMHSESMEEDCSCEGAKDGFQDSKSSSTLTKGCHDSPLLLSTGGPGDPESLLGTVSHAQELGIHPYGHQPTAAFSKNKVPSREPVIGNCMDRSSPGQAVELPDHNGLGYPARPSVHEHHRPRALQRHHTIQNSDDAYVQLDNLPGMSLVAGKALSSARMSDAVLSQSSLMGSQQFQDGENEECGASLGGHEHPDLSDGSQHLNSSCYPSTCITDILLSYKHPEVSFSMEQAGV
Chain of MKK1 (Q02750 whole entry): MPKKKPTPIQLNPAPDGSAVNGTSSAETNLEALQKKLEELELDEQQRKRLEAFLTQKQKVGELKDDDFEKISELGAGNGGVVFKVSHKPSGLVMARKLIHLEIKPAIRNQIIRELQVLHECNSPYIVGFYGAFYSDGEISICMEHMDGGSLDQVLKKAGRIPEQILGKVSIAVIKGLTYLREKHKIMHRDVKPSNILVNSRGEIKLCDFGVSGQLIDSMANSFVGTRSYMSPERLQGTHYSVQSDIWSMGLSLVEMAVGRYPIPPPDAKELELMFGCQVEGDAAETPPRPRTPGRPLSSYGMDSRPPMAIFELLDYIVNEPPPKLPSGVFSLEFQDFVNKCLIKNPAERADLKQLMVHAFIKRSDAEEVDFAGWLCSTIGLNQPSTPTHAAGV

Structure (SMILES): CCN(CC)Cc1ccc(OC)c(-c2cc3c(-c4ccc(C(=O)O)c(C(C)C)c4)ccnc3[nH]2)c1 [analogue 1, 4-(2-(5-((Diethylamino)methyl)-2-methoxyphenyl)-1H-pyrrolo[2,3-b]pyridin-4-yl)-2-isopropylbenzoic Acid]
- activity at 1 µM [1]: 59%
- activity at 1 µM [2]: 74%
- activity at 1 µM [3]: 119%
- activity at 1 µM [4]: 12%
- activity at 1 µM [5]: 2%
- activity at 1 µM [6]: 93%
- activity at 1 µM [7]: 74%
- activity at 1 µM [8]: 105%
- activity at 1 µM [9]: 83%
- activity at 1 µM [10]: 115%
- activity at 1 µM [11]: 55%
- activity at 1 µM [12]: 50%
- activity at 1 µM [13]: 31%
- activity at 1 µM [14]: 56%
- activity at 1 µM [15]: 93%
- activity at 1 µM [16]: 24%
- activity at 1 µM [17]: 22%
- activity at 1 µM [18]: 52%
- activity at 1 µM [19]: 34%
- activity at 1 µM [20]: 112%
- activity at 1 µM [21]: 79%
- activity at 1 µM [22]: 17%
- activity at 1 µM [23]: 111%
- activity at 1 µM [24]: 29%
- activity at 1 µM [25]: 104%
- activity at 1 µM [26]: 99%
- activity at 1 µM [27]: 68%
- activity at 1 µM [28]: 18%
- activity at 1 µM [29]: 92%
- activity at 1 µM [30]: 133%
- activity at 1 µM [31]: 111%
- activity at 1 µM [32]: 80%
- activity at 1 µM [33]: 96%
- activity at 1 µM [34]: 114%
- activity at 1 µM [35]: 104%
- activity at 1 µM [36]: 16%
- activity at 1 µM [37]: 106%
- activity at 1 µM [38]: 87%
- activity at 1 µM [39]: 38%
- activity at 1 µM [40]: 71%
- activity at 1 µM [41]: 42%
- activity at 1 µM [42]: 25%
- activity at 1 µM [43]: 39%
- activity at 1 µM [44]: 66%
- activity at 1 µM [45]: 55%
- activity at 1 µM [46]: 87%
